Measurements taken from US6569894B1, “Arylalkylbenzofuran derivatives as melatonergic agents” (Bristol-Myers Squibb Company, priority 2001, dated 2003).
Blank lines part the entries; values can stand above or below the molecule they belong to.

Legend:
ML1a receptor = target: T1, ML1a receptor (Homo sapiens, UniProt P48039); assay: Melatonergic receptor binding activity, 2-[125I]-iodomelatonin, ML1a; details: membrane homogenates of NIH-3T3 cells, 37° C. for 1 hour
T1 construct: expressed in transfected cells; pcDNA3)
T1 sequence (P48039 whole entry): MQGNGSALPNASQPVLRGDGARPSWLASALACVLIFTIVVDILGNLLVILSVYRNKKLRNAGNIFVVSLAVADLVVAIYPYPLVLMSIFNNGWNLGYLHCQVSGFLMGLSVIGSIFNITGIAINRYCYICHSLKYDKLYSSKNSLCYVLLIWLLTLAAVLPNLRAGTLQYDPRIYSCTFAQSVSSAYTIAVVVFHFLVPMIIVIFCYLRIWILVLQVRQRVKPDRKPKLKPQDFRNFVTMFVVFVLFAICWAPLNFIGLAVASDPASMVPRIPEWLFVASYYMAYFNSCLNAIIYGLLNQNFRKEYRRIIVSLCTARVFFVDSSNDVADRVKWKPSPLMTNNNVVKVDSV
Description: (§1) Melatonergic Receptor Binding Activity
(§2) (a) TME=50 mM Tris buffer containing 12.5 mM MgCl2, and 2 mM EDTA, pH 7.4 at 37° C., with concentrated HCl.
(§3) (b) Wash buffer: 20 mM Tris base containing 2 mM MgCl2, pH 7.4 at room temperature.
(§4) (c) 10^−4 M melatonin (10^−5 M final concentration).
(§5) (d) 2-[^125I]-iodomelatonin, […] final concentration.
2. Membrane Homogenates: The melatonin ML1α receptor cDNA was subcloned into pcDNA3 and introduced into NIH-3T3 cells using Lipofectamine. Transformed NIH-3T3 cells resistant to geneticin (G-418) were isolated, and single colonies expressing high levels of 2-[^125I]-iodomelatonin binding were isolated. Cells are maintained in DMEM supplemented with 10% calf serum and G-418 (0.5 g/liter). Cells are grown to confluency in T-175 flasks, scraped using Hank's balanced salt solution, and frozen at −80° C. For preparing membrane homogenates, pellets are thawed on ice, and re-suspended in TME buffer in the presence of 10 μg/ml aprotinin and leupeptin, and 100 μM phenylmethylsulfonylfluoride. The cells were then homogenized using a dounce homogenizer, and centrifuged. The resulting pellet was re-suspended with dounce homogenizer in TME (supplemented with the above protease inhibitors) and frozen. On the day of assay, a small aliquot was thawed on ice and re-suspended in the ice cold TME (1:50-1:100 v/v) and held on ice until assayed.
(§6) 3. Incubation: 37° C. for 1 hour. Reaction is terminated by filtration. Filters were washed 3 times.
(§7) The compounds of the present invention have affinity for receptors of the endogenous pineal hormone, melatonin, as determined in a receptor binding assays described above in Tables I to V for the ML1a and ML1b (human) receptors. Melatonin is involved in the regulation of a variety of biological rhythms and exerts its biological effects via interaction with specific receptors. There is evidence that administration of melatonin agonists are of clinical utility in the treatment of various conditions regulated by melatonin activity. Such conditions include depression, jet-lag, work-shift syndrome, sleep disorders, glaucoma, some disorders associated with reproduction, cancer benign prostatic hyperplasia, immune disorders and neuroendocrine disorders.

ML1b receptor = target: T2, ML1b receptor (Homo sapiens, UniProt P49286); assay: Melatonergic receptor binding activity, 2-[125I]-iodomelatonin, ML1b; details: 37° C. for 1 hour
T2 construct: expressed in transfected cells
T2 sequence (P49286 1-362): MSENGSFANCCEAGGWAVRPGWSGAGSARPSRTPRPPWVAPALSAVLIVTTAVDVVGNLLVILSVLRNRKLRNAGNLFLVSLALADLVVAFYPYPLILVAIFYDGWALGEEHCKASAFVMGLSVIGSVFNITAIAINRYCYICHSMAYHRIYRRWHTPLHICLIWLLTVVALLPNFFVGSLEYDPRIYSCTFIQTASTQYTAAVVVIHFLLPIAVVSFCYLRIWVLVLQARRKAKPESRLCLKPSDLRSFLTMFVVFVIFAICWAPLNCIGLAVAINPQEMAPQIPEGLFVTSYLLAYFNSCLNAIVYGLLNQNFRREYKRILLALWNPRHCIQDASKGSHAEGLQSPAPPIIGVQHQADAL
Description: as §1, §2, §3, §4, §5, §6, §7

- melting point: 65 to 66 °C
- IC50 (ML1a receptor; Table V): < 0.01 µM
- IC50 (ML1b receptor; Table V): < 0.01 µM
Molecule: CC(=O)NC[C@@H]1C[C@H]1c1cccc2c1C[C@@H](CCCCc1ccccc1)O2 [Example 42, N-({2-[(2R)-2-(4-Phenylbutyl)(2,3-dihydrobenzo[b]furan-4-yl)]-(1R,2R)cyclopropyl}methyl)acetamide]

- IC50 (ML1a receptor; Table IV): 0.01 to 0.25 µM
- IC50 (ML1b receptor; Table IV): 0.01 to 0.25 µM
Molecule: O=C(NC[C@H]1C[C@@H]1c1cccc2oc(CCCCc3ccccc3)cc12)C1CC1 (racemic) [Example 34, N-({(1R,2R)-2-[2-(4-Phenylbutyl)benzo[b]furan-4-yl]-cyclopropyl}methyl)cyclopropylcarboxamide]

- melting point: 69 to 70 °C
- IC50 (ML1a receptor; Table V): 0.01 to 0.25 µM
- IC50 (ML1b receptor; Table V): 0.01 to 0.25 µM
Molecule: CCNC(=O)NC[C@@H]1C[C@H]1c1cccc2c1C[C@@H](CCCCc1ccccc1)O2 [Example 47, N-({2-[(2R)-2-(4-Phenylbutyl)(2,3-dihydrobenzo[b]furan-4-yl)]-(1R,2R)cyclopropyl}methyl)(ethylamino)carboxamide]

- melting point: 126 to 128 °C
- IC50 (ML1a receptor; Table V): 0.01 to 0.25 µM
- IC50 (ML1b receptor; Table V): 0.01 to 0.25 µM
Molecule: CCNC(=O)NCC1CC1c1c(Cl)ccc2c1CC(CCCCc1ccccc1)O2 [Example 48, N-({2-[2R)-5-Chloro-2-(4-phenylbutyl)(2,3-dihydrobenzo[b]furan-4-yl)]-(1R,2R)cyclopropyl}methyl)(ethylamino)carboxamide]

- IC50 (ML1a receptor; Table IV): 0.01 to 0.25 µM
- IC50 (ML1b receptor; Table IV): 0.01 to 0.25 µM
Molecule: CC(C)C(=O)NC[C@H]1C[C@@H]1c1cccc2oc(CCCCc3ccccc3)cc12 (racemic) [Example 33, N-({(1R,2R)-2-[2-(4-Phenylbutyl)benzo[b]furan-4-yl]-cyclopropyl}methyl)-2-methylpropanamide]

- IC50 (ML1a receptor; Table IV): 0.01 to 0.25 µM
- IC50 (ML1b receptor; Table IV): 0.01 to 0.25 µM
Molecule: O=C(NC[C@@H]1C[C@H]1c1cccc2oc(CCCCc3ccc(F)cc3)cc12)C1CC1 (stereo in doubt) [Example 40, N-[((1R,2R)-2-{2-[4-(4-Fluorophenyl)butyl]benzo[b]furan-4-yl}-cyclopropyl)methyl]cyclopropylcarboxamide]

Second part, the molecule before the results:

Molecule: O=C(NCCCc1cccc2oc(CCCCc3ccccc3)cc12)C1CC1 [Example 7, N-[3-[2-(4-Phenylbutyl)benzofuran-4-yl]propyl]cyclopropanecarboxamide]
- melting point: 70 to 71 °C
- IC50 (ML1a receptor; Table II): 0.01 to 0.25 µM
- IC50 (ML1b receptor; Table II): 0.01 to 0.25 µM

Molecule: O=C(NCCCc1cccc2c1C[C@H](CCCCc1ccccc1)O2)C1CC1 (stereo in doubt) [Example 5, N-[3-[2-(4-Phenylbutyl)-2,3-dihydrobenzofuran-4-yl]propyl]cyclopropanecarboxamide]
- melting point: 63 to 64 °C
- IC50 (ML1a receptor; Table I): < 0.01 µM
- IC50 (ML1b receptor; Table I): 0.01 to 0.25 µM

Molecule: CC(=O)NCCCc1cccc2c1C[C@H](CCCCc1ccccc1)O2 (stereo in doubt) [Example 1, N-[3-[2-(4-Phenylbutyl)-2,3-dihydrobenzofuran-4-yl]propyl]acetamide]
- melting point: 40 to 41 °C
- IC50 (ML1a receptor; Table I): < 0.01 µM
- IC50 (ML1b receptor; Table I): 0.01 to 0.25 µM

Molecule: CC(=O)NCCCc1cccc2oc(CCCCc3ccccc3)cc12 [Example 9, N-[3-[2-(4-Phenylbutyl)benzofuran-4-yl]propyl]acetamide]
- IC50 (ML1a receptor; Table II): 0.01 to 0.25 µM
- IC50 (ML1b receptor; Table II): 0.01 to 0.25 µM

Molecule: CCC(=O)NC[C@H]1C[C@@H]1c1cccc2oc(CCCCc3ccccc3)cc12 (racemic) [Example 31, N-({(1R,2R)-2-[2-(4-Phenylbutyl)benzo[b]furan-4-yl]-cyclopropyl}methyl)propanamide]
- IC50 (ML1a receptor; Table IV): < 0.01 µM
- IC50 (ML1b receptor; Table IV): < 0.01 µM

Molecule: N-({2-[(2R)-5,7-Dichloro-2-(4-phenylbutyl)(2,3-dihydrobenzo[b]furan-4-yl)](1R,2R)cyclopropyl}methyl)butanamide [Example 49]
- IC50 (ML1a receptor; Table V): > 0.25 µM
- IC50 (ML1b receptor; Table V): 0.01 to 0.25 µM

Molecule: CCNC(=O)NCCCc1cccc2oc(CCCCc3ccc(C(F)(F)F)cc3)cc12 [Example 14, N-[3-[2-[4-(4-Trifluoromethylphenyl)butyl]benzofuran-4-yl]propyl]-N′-ethyl Urea]
- IC50 (ML1a receptor; Table III): 0.01 to 0.25 µM
- IC50 (ML1b receptor; Table III): > 0.25 µM

Molecule: N-3-(2-(2-Phenyleth-1-yl)benzofuran-3-yl)prop-1-yl Butyramide [Example 25]
- IC50 (ML1a receptor; Table III): 0.01 to 0.25 µM
- IC50 (ML1b receptor; Table III): 0.01 to 0.25 µM

Molecule: CCC(=O)NCCCc1cccc2oc(CCCCc3ccccc3)cc12 [Example 10, N-[3-[2-(4-Phenylbutyl)benzofuran-4-yl]propyl]propionamide]
- IC50 (ML1a receptor; Table II): < 0.01 µM
- IC50 (ML1b receptor; Table II): 0.01 to 0.25 µM

Molecule: CC(C)C(=O)NCCCc1cccc2oc(CCCCc3ccc(C(F)(F)F)cc3)cc12 [Example 18, N-[3-[2-[4-(4-Trifluoromethylphenyl)butyl]benzofuran-4-yl]propyl]-isobutyramide]
- IC50 (ML1a receptor; Table III): 0.01 to 0.25 µM
- IC50 (ML1b receptor; Table III): > 0.25 µM

Molecule: N-3-(2-(3-Phenylprop-1-yl)benzofuran-3-yl)prop-1-yl Acetamide [Example 19]
- IC50 (ML1a receptor; Table III): < 0.01 µM
- IC50 (ML1b receptor; Table III): 0.01 to 0.25 µM

Molecule: N-{3-[3-Chloro-2-(4-phenylbutyl)benzo[b]furan-4-yl]-propyl}ethoxycarboxamide [Example 27]
- IC50 (ML1a receptor; Table III): > 0.25 µM
- IC50 (ML1b receptor; Table III): > 0.25 µM
